# From patent publication US20240317683A1, “METHODS OF TREATING MOOD DISORDERS” (priority 2020, published 2024)
# Counter-ions that a name gives are not always drawn.
# Tests used:
# [1] = target: human 5-HT2C receptor (Homo sapiens (Human), UniProt P28335); assay: cell-based; type: cell-based; details: Ca2+ flux
# [2] = target: CYP2C9 (Homo sapiens (Human), UniProt P11712); assay: CYP inhibition in human liver microsomes, CYP2C9; type: in vitro ADME; details: for inhibition at 10 min, 10 µM: both sexes, human, pooled human liver microsomes, pH 7.4, probe diclofenac (5 μM), HLM, diclofenac substrate, read-out: CYP 2C9 % Inhibition at 10 μM
# CYP2C9, sequence (P11712 whole entry, looked up): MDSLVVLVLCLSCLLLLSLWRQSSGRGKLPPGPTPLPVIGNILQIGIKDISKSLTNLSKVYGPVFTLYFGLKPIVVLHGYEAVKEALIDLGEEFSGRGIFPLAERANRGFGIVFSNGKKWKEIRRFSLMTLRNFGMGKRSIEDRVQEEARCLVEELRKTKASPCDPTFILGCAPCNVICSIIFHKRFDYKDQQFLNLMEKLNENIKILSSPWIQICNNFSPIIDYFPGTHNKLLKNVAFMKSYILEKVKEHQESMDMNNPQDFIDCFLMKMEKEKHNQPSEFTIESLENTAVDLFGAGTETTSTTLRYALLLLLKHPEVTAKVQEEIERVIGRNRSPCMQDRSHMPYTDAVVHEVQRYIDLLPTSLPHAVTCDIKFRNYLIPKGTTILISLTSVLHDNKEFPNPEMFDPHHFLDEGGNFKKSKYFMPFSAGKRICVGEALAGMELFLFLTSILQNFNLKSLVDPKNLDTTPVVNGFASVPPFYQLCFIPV
# [3] = tested on: C57BL/6 mice; assay: Head twitch response (HTR) in mice; type: in vivo; details: for Average HTR: 20 mins; for maximal effect in HTR: SC, maximal over tested doses
# Description: Animals. Adult male C57BL/6 mice, aged 8 weeks (body weight 20-25 g) were used in these experiments. Animals were housed under controlled temperatures and 12-hour light/dark cycles (lights on between 07:00-19:00 h), with ad libitum food and water. The protocol was approved by the Eurofins Advinus Institutional Animal Care and Use Committee. This study was carried out in strict accordance with the recommendations in the Guide for the Care and Use of Laboratory Animals of the National Institutes of Health. All efforts were made to minimize suffering.
# Drugs and Drug administration. Compounds 3 and 4 were prepared as described above. All other compounds were commercially obtained. Test compounds were used as the hydrogen fumarate (1 and 2) or hydrochloride (DOI, 3, and 4) salts. Drugs were dissolved in a vehicle consisting of normal saline and administered subcutaneously (SC) in a volume of 10 ml/kg. Test compounds were administered at 5 doses per compound (0.1 to 100 mg/kg, as indicated, calculated based on the free base) using N=6 animals/group. […] For blockade experiments, MDL100907 (0.1 mg/kg, SC) was administered 10 mins prior to the test compound.
# Procedure. Mice were administered one dose of a test drug (or vehicle) s.c. and immediately placed into a small open field for behavioral observation. Animals were observed continuously for 20 mins and the number of HTRs were counted by an observer blind to the treatment condition.
# Statistical analysis. The data points shown in Table 11 are the mean ±standard error of the mean (SEM). Analysis was performed using GraphPad Prism 9.
# [4] = target: CYP3A4 (Homo sapiens (Human), UniProt P08684); assay: CYP inhibition in human liver microsomes, CYP3A4; type: in vitro ADME; details: for inhibition at 10 min, 10 µM: both sexes, human, pooled human liver microsomes, pH 7.4, probe midazolam (2 μM), HLM, midazolam substrate, read-out: CYP 3A4 % Inhibition at 10 μM
# CYP3A4, sequence (P08684 whole entry, looked up): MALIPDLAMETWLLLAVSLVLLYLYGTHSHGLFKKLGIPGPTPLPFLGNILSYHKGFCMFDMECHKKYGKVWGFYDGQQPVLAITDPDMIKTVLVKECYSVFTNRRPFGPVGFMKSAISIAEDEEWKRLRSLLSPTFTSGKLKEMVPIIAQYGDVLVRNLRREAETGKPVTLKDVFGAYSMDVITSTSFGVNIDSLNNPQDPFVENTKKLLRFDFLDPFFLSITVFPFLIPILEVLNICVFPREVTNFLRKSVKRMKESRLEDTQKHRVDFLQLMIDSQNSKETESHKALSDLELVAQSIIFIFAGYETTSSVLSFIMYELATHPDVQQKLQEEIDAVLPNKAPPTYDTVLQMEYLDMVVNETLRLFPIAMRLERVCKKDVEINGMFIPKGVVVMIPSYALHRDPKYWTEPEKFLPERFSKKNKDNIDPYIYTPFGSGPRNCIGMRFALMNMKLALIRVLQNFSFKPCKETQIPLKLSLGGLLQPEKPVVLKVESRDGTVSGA
# [5] = Pharmacokinetics in rats, plasma; type: in vivo; details: male, Sprague Dawley, rat plasma, SC
# Description: (§1) Animals. Male Sprague Dawley rats, aged 8-12 weeks, were used in these studies. Four rats were housed in each cage. Temperature and humidity were maintained at 22±3° C. and 30-70%, respectively, and illumination was controlled to give a 12 h light and 12 h dark cycle. Temperature and humidity were recorded by an auto-controlled data logger system. All animals were provided laboratory rodent diet and were fasted for 4 h pre-dose and 2 h post-dose. Reverse osmosis water treated with ultraviolet light was provided ad libitum. Animals were randomly assigned to treatment groups.
# (§2) Drugs. Compounds 4 and 5 were prepared as described above. Compound 6 was commercially obtained. Test compounds were used as the hydrogen fumarate (6) or hydrochloride (4 and 5) salts and were dissolved in a vehicle consisting of normal saline. They were then administered subcutaneously (SC) at a dose of 1 or 10 mg/kg (calculated based on the free base) and at a volume of 5 mL/kg body weight.
# (§3) Sample Collection and Bioanalysis. Blood samples (approximately 120 μL) were collected under light isoflurane anesthesia (Surgivet®) from the retro orbital plexus at 0.08, 0.25, 0.5, 1, 2, 4, 8, and 24 h (4 animals per time point). Immediately after blood collection, plasma was harvested by centrifugation at 4,000 rpm for 10 min at 4° C. and samples were stored at −70±10° C. until bioanalysis. Following blood collection, animals were immediately sacrificed, the abdominal vena-cava was cut open, and the whole body was perfused from the heart using 10 mL of normal saline, and brain samples were collected from all animals. After isolation, brain samples were rinsed three times in ice-cold normal saline (for 5-10 seconds/rinse using ˜5-10 mL normal saline in disposable petri dish for each rinse) and dried on blotting paper. Brain samples were homogenized using ice-cold phosphate-buffered saline (pH 7.4). Total homogenate volume was three times the tissue weight. All homogenates were stored at −70±10° C. until bioanalysis. For bioanalysis, 25 μL aliquots of plasma/brain study samples or spiked plasma/brain calibration standards were added to individual pre-labeled micro-centrifuge tubes followed by 100 μL of an internal standard solution (glipizide, 500 ng/ml in acetonitrile) except for blanks, where 100 μL of acetonitrile was added. Samples were vortexed for 5 minutes and then centrifuged for 10 minutes at 4,000 rpm at 4° C. Following centrifugation, 100 μL of each clear supernatant was transferred to a 96 well plate and analyzed with a fit-for-purpose LC-MS/MS method, with authentic samples of each analyte used for calibration and identification.
# (§4) Data Analysis. Pharmacokinetic parameters were estimated using the non-compartmental analysis tool of Phoenix® WinNonlin software (Ver 8.0).
# [6] = Pharmacokinetics in rats, brain; type: in vivo, Sprague Dawley rats; details: rat brain, SC; for Cmax / Tmax / half-life: male, Sprague Dawley
# Description: as §1, §2, §3, §4
# human 5-HT2C receptor, sequence (P28335 33-458 limits assumed): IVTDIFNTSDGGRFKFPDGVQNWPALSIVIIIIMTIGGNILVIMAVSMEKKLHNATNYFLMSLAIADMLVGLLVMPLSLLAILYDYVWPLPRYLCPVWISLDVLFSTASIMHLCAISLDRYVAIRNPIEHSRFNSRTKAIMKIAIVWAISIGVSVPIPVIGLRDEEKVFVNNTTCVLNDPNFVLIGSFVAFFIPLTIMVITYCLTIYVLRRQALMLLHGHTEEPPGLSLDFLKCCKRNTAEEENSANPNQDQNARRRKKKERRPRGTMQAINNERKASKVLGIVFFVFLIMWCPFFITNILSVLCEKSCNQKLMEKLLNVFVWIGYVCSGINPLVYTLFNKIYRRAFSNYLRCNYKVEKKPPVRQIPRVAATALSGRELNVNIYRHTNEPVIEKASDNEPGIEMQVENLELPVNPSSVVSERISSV
Compound,5-HT2C % Act @ Max Dose [1] [%],IC50 [2] [µM],"inhibition at 10 min, 10 µM [2] [%]",Average HTR ([3]; 1 mg/kg SC),Average HTR ([3]; 10 mg/kg SC),Average HTR ([3]; 100 mg/kg SC),maximal effect in HTR [3] [head twitches/20 min],IC50 [4] [µM],"inhibition at 10 min, 10 µM [4] [%]",Average HTR ([3]; 0.1 mg/kg SC),AUC(0-t) ([5]; 10 mg/kg) [ng·h/mL],Cmax ([5]; 10 mg/kg) [ng/mL],Tmax ([5]; 10 mg/kg) [min],Cmax ([6]; 10 mg/kg) [ng/g],Tmax ([6]; 10 mg/kg) [min],half-life ([6]; 10 mg/kg) [min],AUC0-last ([6]; 10 mg/kg),EC50 [1] [µM],other results
"CCN(C)CCc1c[nH]c2ccccc12 [Compound 2, methylethyltryptamine]",89.7,> 50,0,3.667,2.500,0.500,6.00,> 50,0,,,,,,,,,,
"CCCN(CC)CCc1c[nH]c2ccc(F)cc12 [Compound 3, N-ethyl-N-(2-(5-fluoro-1H-indol-3-yl)ethyl) propan-1-amine hydrochloride]",,> 50,,29.333,26.333,,29.33,> 50,,12.5,,,,,,,,,
"CN(C)CCc1c[nH]c2ccc(F)cc12 [Compound 5, 2-(5-fluoro-1H-indol-3-yl)-N,N-dimethylethan-1-amine hydrochloride]",,,,,,,,,,,266,243,15,275,15,23.4,93.99 ng·h/g,,half-life ([5]; 10 mg/kg): 33 min
"CCN(C)CCc1c[nH]c2ccc(F)cc12 [Compound 4, N-ethyl-2-(5-fluoro-1H-indol-3-yl)-N-methylethan-1-amine hydrochloride]",85.13,> 50,,18.333,9.333,,27.67,> 50,,5.00,499,237,60,2480,60,31.2,"4,710.96 h*ng/g",0.00946,"AUC(0-t) ([5]; 1 mg/kg): 46.8 ng·h/mL; Cmax ([5]; 1 mg/kg): 41.3 ng/mL; Tmax ([5]; 1 mg/kg): 30 min; total number of HTR counts vs. vehicle (FIG. 2) ([3]; Cmp 4 alone, Dunnett's test, P<0.0001): significantly different from vehicle; Cmax ([6]; 1 mg/kg): 188 ng/g; Tmax ([6]; 1 mg/kg): 15 min; half-life ([6]; 1 mg/kg): 23.4 min; AUC0-last ([6]; 1 mg/kg): 197.70 ng·h/g"
CCN(C)CCc1c[nH]c2cccc(O)c12 [Compound 6],,> 50,,,,,,> 50,,,3000,624,120,6160,120,125,"30,638.13 h*ng/g",,
"CCCN(CC)CCc1c[nH]c2ccccc12 [Compound 1, ethylpropyltryptamine]",90.8,,0.1,14.667,8.000,4.500,14.7,,2,,,,,,,,,0.0334,
